Consider eleven compounds from patent US7667044B2, “Compounds for the treatment of neurological disorders” (Probiodrug AG, priority 2003, dated 2010).

Each structure is given as a SMILES string. pIC50, pKi: −log10 of the molar value.

For experiment [1], the system named is human neuroblastoma SH-SY5Y cells. As to the kind of experiment: β-Amyloid ELISA, secreted β-amyloid peptides in conditioned medium. Format: cell-based. Particulars: Aβ 1-42 (FIG. 2), inhibitor 20 μM, 24 hours, untreated = 100%, read-out: Extracellular Aβ-concentration, % of control. The method, then: The human glioma cell line, U-343 and the human neuroblastoma cell line, SH-SY5Y were maintained in Dulbecco's modified Eagle's medium (DMEM) containing 10% fetal bovine serum (Gibco BRL, Karlsruhe, Germany) and incubated at 37° C. in a 5% CO2 atmosphere. Culture media contained in general 60 μg/ml gentamycin (Gibco BRL, Karlsruhe, Germany).
To quantify intracellular and extracellular concentrations of β-amyloid peptides, 1-40 and 142, U-343 and SH-SY5Y cells were cultured in 6 well plates (1.5×10^6 cells/well) and treated with specific PEP inhibitors (20 μM each) for 24 hours. For quantitation of secreted β-amyloid peptides the conditioned medium was collected and concentrated by lyophylisation. Likewise, after determination of the cell numbers/well (casy cell counter I, Schärfe System, Reutlingen, Germany), cells were lyzed with cell extraction buffer (Biosource, Solingen, Germany) according to the manufacturer's protocol. The protein concentration was determined by the method of Bradford (1976). Aliquots of 100 μl were used to quantify β-amyloid peptides 1-40 and 1-42 in quadruplicate by ELISA, (IBL, Hamburg, Germany) following the manufacturer's instructions. All obtained intracellular and extracellular concentrations were normalized to cell numbers and protein concentration, respectively.
For the calculation of the concentration of β-amyloid peptides 1-40 and 1-42 in the cell culture medium after PEP-inhibitor treatment, the basal concentration of β-amyloid peptides 1-40 and 1-42 in the cell culture medium of untreated cell samples was set to 100%. The results of the measurement of the concentration of β-amyloid peptides 1-40 and 1-42 with PEP-inhibitor treated cells are presented as % of the untreated cell samples.

The subject of experiment [2] is human glial U-343 cells. As to the kind of experiment: IL-6 ELISA, basal secretion of IL-6 into conditioned medium. Format: cell-based. Particulars: inhibitor 20 μM, 24 hours, serum-free medium, untreated = 100%, read-out: Extracellular IL-6 concentration, % of untreated cells. The protocol:
To analyze basal secretion of IL-6, human glial U-343 cells were cultured in 6 well plates (1.5×10^6 cells/well, Greiner) and treated with specific PEP inhibitors as indicated (20 μM each) for 24 hours in serum-free D-MEM medium (invitrogen). Aliquots of 40 μl conditioned medium were used to quantify the amount of secreted IL-6 by an human-specific IL-6 ELISA (Biosource) following the manufacturer's instructions. All data were obtained in quadruplicate. For the calculation of the IL-6 concentration in the cell culture medium after PEP-inhibitor treatment, the basal IL-6 concentration of the cell culture medium of untreated cell samples was set to 100%. The results of the measurement of the IL-6 concentration with PEP-inhibitor treated cells are presented as % of the untreated cell samples.
A general note: An ELISA detects its analyte on a solid surface through an enzyme-linked reagent.

The target of experiment [3] is T1, Recombinant human prolyl oligopeptidase (Homo sapiens, UniProt P48147).
T1 construct: made in house; host or cells: E. coli
T1 sequence (P48147 1-710): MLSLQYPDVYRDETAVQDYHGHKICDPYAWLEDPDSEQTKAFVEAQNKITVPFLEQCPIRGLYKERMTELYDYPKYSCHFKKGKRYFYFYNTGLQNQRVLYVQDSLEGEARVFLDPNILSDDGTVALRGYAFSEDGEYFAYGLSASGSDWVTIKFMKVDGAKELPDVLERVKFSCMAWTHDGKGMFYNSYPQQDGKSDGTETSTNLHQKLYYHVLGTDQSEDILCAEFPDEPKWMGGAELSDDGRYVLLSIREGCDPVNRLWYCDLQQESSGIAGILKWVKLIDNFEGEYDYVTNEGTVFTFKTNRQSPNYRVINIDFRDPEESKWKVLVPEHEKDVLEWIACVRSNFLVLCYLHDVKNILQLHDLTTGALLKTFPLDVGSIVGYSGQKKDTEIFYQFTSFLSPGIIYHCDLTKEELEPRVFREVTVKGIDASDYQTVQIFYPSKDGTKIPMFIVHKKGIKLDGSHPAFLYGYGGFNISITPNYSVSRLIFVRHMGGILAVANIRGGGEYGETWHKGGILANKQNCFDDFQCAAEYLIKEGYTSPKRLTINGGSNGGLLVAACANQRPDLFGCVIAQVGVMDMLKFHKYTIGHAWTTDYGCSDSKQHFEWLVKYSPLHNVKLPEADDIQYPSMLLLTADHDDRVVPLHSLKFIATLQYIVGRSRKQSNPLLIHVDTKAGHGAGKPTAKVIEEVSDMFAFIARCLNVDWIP
The experiment can be described thus: Determination of IC50- and Ki-values of PEP-inhibitors, chromogenic substrate Cbz-Gly-L-Pro-pNA. The class given is biochemical. Particulars: for pKi: 4 substrate and 7 inhibitor concentrations, competitive inhibition fit, pH 7.6, 30° C.; for pIC50: substrate 0.15 mM Cbz-Gly-L-Pro-pNA, HEPES buffer pH 7.6, 30° C. The protocol: Recombinant human prolyl oligopeptidase was used for measurement. Recombinant expression was performed in E. coli under standard conditions as described elsewhere in the state of the art.
For activity measurements the chromogenic substrate Cbz-Gly-L-Pro-pNA was used in HEPES buffer pH 7.6 containing 50 mM HEPES, 200 mM NaCl, 1 mM EDTA, 1 mM DTT, 0.006% Brij35. Measurements were carried out at 30° C. Release of pNA were monitored continuously at 405 nm.
IC50 values were calculated using non-linear regression to a 4-parameter equation (Prism 4.0, GraphPad).
Calculations were performed by multiple non-linear regression analysis to the equation for competitive inhibition using GraFit 5.0 Software (Erithacus Software).

As usually defined, the pKi is the Ki on a negative log10 scale, so that one unit is a factor of ten. For orientation: pIC50 means the negative decadic logarithm of the IC50, by convention in mol/L.

Turning to `O=C(N[C@H](Cc1ccccc1)C(=O)N1CCCC1C(=O)c1nc2ccccc2s1)OCc1ccccc1` (stereo partly drawn) [Example 1, 2-[Cbz-L-Phe-L-Pro]Benzothiazole], the activity at 20 µM in experiment [1] is 447%; in experiment [2] it was 14.3%. Further, the pKi in experiment [3] was 10.24. Besides, the pIC50 in experiment [3] is 8.22.
In the case of `O=C(N[C@@H](Cc1ccccc1)C(=O)N1CCC[C@H]1C(=O)c1nccs1)OCc1ccccc1` [Example 4, 2-[Cbz-L-Phe-L-Pro]Thiazole], in experiment [1], the activity at 20 µM is 519%. Besides, the activity at 20 µM in experiment [2] was 14.6%. In experiment [3], the negative-log Ki (pKi) was 8.17 and the pIC50 was 7.82.
The matching figures for `O=C(N[C@@H](Cc1ccccc1)C(=O)N1CCC[C@H]1C(=O)c1ccc[nH]1)OCc1ccccc1` [Example 11]: 340%, 52.1%, 8.54 and 5.12.
On to `CC(C)(C)OC(=O)N[C@@H](Cc1ccccc1)C(=O)N1CCC[C@H]1C(=O)c1nc2ccccc2s1` [Example 9, 2-[Boc-L-Phe-L-Pro]Benzothiazole], for which the figures for the activity at 20 µM in experiment [1] and in experiment [2] were 368% and 33.1%, respectively. The pKi in experiment [3] is 8.22. Moreover, the pIC50 in experiment [3] was 7.54.
For the compound `N=C(N)NCCC[C@H](NC(=O)OCc1ccccc1)C(=O)N1CCC[C@H]1C(=O)c1nc2ccccc2s1` [Example 5, 2-[Cbz-L-Arg-L-Pro]Benzothiazole], the activity at 20 µM in experiment [1] worked out at 94%. The activity at 20 µM in experiment [2] worked out at 109%. Moreover, in experiment [3], the pKi was 8.49 and the pIC50 is 8.27.
Consider `C=CCOC(=O)N[C@@H](Cc1ccccc1)C(=O)N1CCC[C@H]1C(=O)c1nc2ccccc2s1` [Example 7, 2-[Aloc-L-Phe-L-Pro]Benzothiazole], for which the activity at 20 µM in experiment [1] amounted to 528%. The activity at 20 µM in experiment [2] was determined as 17%. Besides, in experiment [3], the pKi is 8.09 and the negative-log IC50 (pIC50) was 8.01.
In the case of `C[C@H](NC(=O)[C@@H](Cc1ccccc1)NC(=O)OCc1ccccc1)C(=O)c1nc2ccccc2s1` [Example 3, 2-[Cbz-L-Phe-L-Ala]Benzothiazole], the activity at 20 µM is 546% in experiment [1] and 35.2% in experiment [2]. In experiment [3], the pIC50 was 5.85.
Turning to `NCCCC[C@H](NC(=O)OCc1ccccc1)C(=O)N1CCC[C@H]1C(=O)c1nc2ccccc2s1` [Example 8, 2-[Cbz-L-Lys-L-Pro]Benzothiazole], the activity at 20 µM in experiment [1] was found to be 87.5%; in experiment [2], 160%. For the same compound, the negative logarithm of the Ki (pKi) in experiment [3] is 10.42. Further, the pIC50 in experiment [3] is 8.70.
Turning to `O=C(O)C[C@H](NC(=O)OCc1ccccc1)C(=O)N1CCC[C@H]1C(=O)c1nc2ccccc2s1` [Example 6, 2-[Cbz-L-Asp-L-Pro]Benzothiazole], the activity at 20 µM in experiment [1] turned out to be 96.2%. Further, the activity at 20 µM in experiment [2] was 58%. Further, in experiment [3], the pKi was 7.92 and the negative-log IC50 (pIC50) is 7.77.
On to `C[C@H](NC(=O)OCc1ccccc1)C(=O)N1CCC[C@H]1C(=O)c1nccs1` [Example 10, 2-[Cbz-L-Ala-L-Pro]Thiazole], for which the activity at 20 µM in experiment [1] turned out to be 157%. In experiment [2], the activity at 20 µM turned out to be 66%. In experiment [3], the pKi is 8.59 and the pIC50 is 8.37.
For the compound `C[C@@H](NC(=O)OCc1ccccc1)C(=O)N1CCC[C@H]1C(=O)c1nc2ccccc2s1` [Example 2, 2-[Cbz-L-Ala-L-Pro]Benzothiazole], the activity at 20 µM in experiment [1] was 123%. Besides, the activity at 20 µM in experiment [2] came out at 20.1%. In addition, in experiment [3], the pKi is 10.48 and the negative logarithm of the IC50 (pIC50) was 9.92.
